Test results from US8865734B2 (priority 2010, dated 2014).
Values after ≈ are worked out from the molar mass of the structure shown. Counter-ions that a name gives are not always drawn.

Legend:
[1] = tested on: in vitro grown Mycobacteria (M. tuberculosis); experiment: QUM: Quantification of in vitro grown Mycobacteria (in vitro growth fluorescence assay); assay type: cell-based; settings: Mycobacterium tuberculosis; MIC, 80% bacterial growth inhibition; in vitro growth; read-out: QUM
Outline: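 Mycobacterium tuberculosis grown in vitro was quantified by fluorescence across compound dose responses. MIC is defined as the minimum concentration producing 80% growth inhibition.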

[2] = tested on: M. tuberculosis inside the host macrophage; experiment: QIM: Quantification of Intracellular Mycobacteria (intracellular growth assay, phenotypic cell-based); settings: Mycobacterium tuberculosis; MIC, 80% bacterial growth inhibition; intracellular growth; read-out: QIM
Outline: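 Dose-response testing of intracellular mycobacterial replication in infected macrophages, a cell-based screening format; MIC is defined as the lowest concentration achieving 80% inhibition of bacterial growth.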

Compound | melting point [°C] | MIC [1] [µM] | MIC [2] [µM]
CCc1nc2ccc(C)cn2c1C(=O)NCc1ccc(N2CCN(c3ccc(F)cc3)CC2)cc1 [Compound 308, 2-Ethyl-N-(4-(4-(4-fluorophenyl)piperazin-1-yl)benzyl)-6-methylimidazo[1,2-a]pyridine-3-carboxamide] | 187.6 | < 1 | 
CCc1nc2ccc(Cl)cn2c1C(=O)NCc1ccc(N2CCC(C(N)=O)CC2)cc1 [Compound 343, N-(4-(4-Carbamoylpiperidin-1-yl)benzyl)-6-chloro-2-ethylimidazo[1,2-a]pyridine-3-carboxamide] | 257.5 | < 1 | 
CCc1nc2cc(Cl)ccn2c1C(=O)NCc1cccc(-c2ccc(OC(F)(F)F)cc2)c1 [Compound 248, 7-Chloro-2-ethyl-N-((4′-(trifluoromethoxy)biphenyl-3-yl)methyl)imidazo[1,2-a]pyridine-3-carboxamide] | 192.6 | < 1 | 
CCc1nc2cc(Cl)ccn2c1C(=O)NCc1ccc(N2CCC(O)(c3ccc(F)cc3)CC2)cc1 [Compound 342, 7-Chloro-2-ethyl-N-(4-(4-(4-fluorophenyl)-4-hydroxypiperidin-1-yl)benzyl)imidazo[1,2-a]pyridine-3-carboxamide] | 199 | < 1 | 
CCc1nc2ccc(C(F)(F)F)cn2c1C(=O)NCc1ccc(N2CCOCC2)cc1 [Compound 321, 2-Ethyl-N-(4-morpholinobenzyl)-6-(trifluoromethyl)imidazo[1,2-a]pyridine-3-carboxamide] | 207.6 | < 1 | 
CCc1nc2c(F)cccn2c1C(=O)NCc1ccc(Oc2ccc(OC(F)(F)F)cc2)cc1 [Compound 257, 2-Ethyl-8-fluoro-N-(4-(4-(trifluoromethoxy)phenoxy)benzyl)imidazo[1,2-a]pyridine-3-carboxamide] | 105.6 | < 1 | 
CCc1nc2ccc(Cl)cn2c1C(=O)NCC(C)C [Compound 247, 6-Chloro-2-ethyl-N-isobutylimidazo[1,2-a]pyridine-3-carboxamide] | 162.2 | > 20 | 
CCc1nc2ccc(Cl)cn2c1C(=O)NCc1ccc(N2CCC(c3ccccc3)CC2)cc1 [Compound 284, 6-Chloro-2-ethyl-N-(4-(4-phenylpiperidin-1-yl)benzyl)imidazo[1,2-a]pyridine-3-carboxamide] | 138.2 | < 1 | 
CCc1nc2cc(Cl)ccn2c1C(=O)NCc1ccc(N2CCC3CCCCC3C2)cc1 (centres unmarked) [Compound 268, 7-Chloro-2-ethyl-N-(4-(octahydroisoquinolin-2(1H)-yl)benzyl)imidazo[1,2-a]pyridine-3-carboxamide] | 174.2 | < 1 | 
CCc1nc2ccc(F)cn2c1C(=O)NCc1ccc(Oc2ccc(OC(F)(F)F)cc2)cc1 [Compound 253, 2-Ethyl-6-fluoro-N-(4-(4-(trifluoromethoxy)phenoxy)benzyl)imidazo[1,2-a]pyridine-3-carboxamide] | 133.4 | < 1 | 
CCc1nc2cc(C)ccn2c1C(=O)NCc1ccc(Oc2ccc(OC(F)(F)F)cc2)cc1 [Compound 256, 2-Ethyl-7-methyl-N-(4-(4-(trifluoromethoxy)phenoxy)benzyl)imidazo[1,2-a]pyridine-3-carboxamide] | 133.6 | < 1 | 
CCc1nc2c(OC(F)F)cccn2c1C(=O)NCc1ccc(N2CCOCC2)cc1 [Compound 319, 8-(Difluoromethoxy)-2-ethyl-N-(4-morpholinobenzyl)imidazo[1,2-a]pyridine-3-carboxamide] | 163 | 1 to 20 (≈ 0.43 to 8.61 µg/mL) | 
CCc1nc2cc(Cl)ccn2c1C(=O)NCc1ccc(N2CCN(c3ccc(F)cc3)CC2)cc1 (as salt: hydrochloride) [Compound 177, 7-Chloro-2-ethyl-N-(4-(4-(4-fluorophenyl)piperazin-1-yl)benzyl)imidazo[1,2-a]pyridine-3-carboxamide trihydrochloride] | 204.4 to 206.9 |  | 
CCc1nc2cc(Cl)ccn2c1C(=O)NCc1ccc2ccccc2c1 [Compound 91, 7-Chloro-2-ethyl-N-(naphthalen-2-ylmethyl)imidazo[1,2-a]pyridine-3-carboxamide] |  | < 1 | 1 to 20 (≈ 0.364 to 7.28 µg/mL)
CCc1nc2ccccn2c1C(=O)NCc1ccc(OC(F)(F)F)cc1 [Compound 57, 2-Ethyl-N-(4-(trifluoromethoxy)benzyl)imidazo[1,2-a]pyridine-3-carboxamide] |  | < 1 | < 1
CCc1nc2cc(N3CCNCC3)ccn2c1C(=O)NCc1ccc(C(C)(C)C)cc1 [Compound 145, N-(4-tert-Butylbenzyl)-2-ethyl-7-(piperazin-1-yl)imidazo[1,2-a]pyridine-3-carboxamide] |  | > 20 | > 20
CCc1nc2cc(Cl)ccn2c1C(=O)NCc1ccc(N2CCCCCC2)cc1 [Compound 222, N-(4-(Azepan-1-yl)benzyl)-7-chloro-2-ethylimidazo[1,2-a]pyridine-3-carboxamide] |  | < 1 | < 1
CCc1nc2ccccn2c1C(=O)NCc1ccc(OC(C)C)cc1 [Compound 60, 2-Ethyl-N-(4-isopropoxybenzyl)imidazo[1,2-a]pyridine-3-carboxamide] |  | < 1 | < 1

Compound | melting point [°C] | MIC [1] [µM] | MIC [2] [µM]
Cc1nc2ccccn2c1C(=O)NCC1CCCCC1 [Compound 18, N-(Cyclohexylmethyl)-2-methylimidazo[1,2-a]pyridine-3-carboxamide] |  | > 20 | > 20
CCc1nc2ccc([N+](=O)[O-])cn2c1C(=O)NCc1ccc(OC(F)(F)F)cc1 [Compound 149, 2-Ethyl-6-nitro-N-(4-(trifluoromethoxy)benzyl)imidazo[1,2-a]pyridine-3-carboxamide] |  | > 20 | > 20
CCCC(=O)NCc1ccc(-c2ccc(CNC(=O)c3c(CC)nc4cc(Cl)ccn34)cc2)cc1 [Compound 159, N-((4′-(Butyramidomethyl)biphenyl-4-yl)methyl)-7-chloro-2-ethylimidazo[1,2-a]pyridine-3-carboxamide] |  | < 1 | < 1
CCc1nc2cc(OC)ccn2c1C(=O)NCc1ccc(OC(F)(F)F)cc1 [Compound 104, 2-Ethyl-7-methoxy-N-(4-(trifluoromethoxy)benzyl)imidazo[1,2-a]pyridine-3-carboxamide] |  | > 20 | 1 to 20 (≈ 0.393 to 7.87 µg/mL)
CCc1nc2cc(Cl)ccn2c1C(=O)NCc1ccc2oc(-c3ccc(OC(F)(F)F)cc3)nc2c1 [Compound 208, 7-Chloro-2-ethyl-N-((2-(4-(trifluoromethoxy)phenyl)benzo[d]oxazol-5-yl)methyl)imidazo[1,2-a]pyridine-3-carboxamide] |  | < 1 | < 1
CCc1nc2cc(Cl)ccn2c1C(=O)NCc1ccc(N2CCN(c3ccccc3)CC2)cc1 [Compound 111, 7-Chloro-2-ethyl-N-(4-(4-phenylpiperazin-1-yl)benzyl)imidazo[1,2-a]pyridine-3-carboxamide] |  | < 1 | < 1
CCc1nc2ccc(Cl)cn2c1C(=O)NCc1ccc(C(C)(C)C)cc1 [Compound 73] |  | < 1 | < 1
Cc1nc2ccccn2c1C(=O)O [Compound 1, 2-Methylimidazo[1,2-a]pyridine-3-carboxylic acid] |  | > 20 | > 20
CCc1nc2ccc(C)cn2c1C(=O)NCc1ccc(C(C)(C)C)cc1 [Compound 64, N-(4-tert-Butylbenzyl)-2-ethyl-6-methylimidazo[1,2-a]pyridine-3-carboxamide] |  | < 1 | < 1
CCc1nc2cc(Cl)ccn2c1C(=O)NCc1ccc(-c2ccccc2Cl)cc1 [Compound 94, 7-Chloro-N-((2′-chlorobiphenyl-4-yl)methyl)-2-ethylimidazo[1,2-a]pyridine-3-carboxamide] |  | < 1 | < 1
Cc1nc2ccccn2c1C(=O)NCc1ccc2[nH]ccc2c1 [Compound 17, N-((1H-Indol-5-yl)methyl)-2-methylimidazo[1,2-a]pyridine-3-carboxamide] |  | 1 to 20 (≈ 0.304 to 6.09 µg/mL) | 1 to 20 (≈ 0.304 to 6.09 µg/mL)
CCc1nc2cc(Cl)ccn2c1C(=O)NCc1ccc(-c2ccc(OC(F)(F)F)cc2)cc1 [Compound 119, 7-Chloro-2-ethyl-N-((4′-(trifluoromethoxy)biphenyl-4-yl)methyl)imidazo[1,2-a]pyridine-3-carboxamide] |  | < 1 | < 1
CCc1nc2ccccn2c1C(=O)NCc1ccc2ccn(C)c2c1 [Compound 58, 2-Ethyl-N-((1-methyl-1H-indol-6-yl)methyl)imidazo[1,2-a]pyridine-3-carboxamide] |  | 1 to 20 (≈ 0.332 to 6.65 µg/mL) | 1 to 20 (≈ 0.332 to 6.65 µg/mL)
CCc1nc2cc(Cl)c(Cl)cn2c1C(=O)NCc1ccc(OC(F)(F)F)cc1 [Compound 153, 6,7-Dichloro-2-ethyl-N-(4-(trifluoromethoxy)benzyl)imidazo[1,2-a]pyridine-3-carboxamide] |  | 1 to 20 (≈ 0.432 to 8.64 µg/mL) | > 20
CCc1nc2ccc(Cl)cn2c1C(=O)NCc1ccc(Oc2ccccc2)cc1 [Compound 71] |  | < 1 | < 1
CCc1nc2ccc(F)cn2c1C(=O)NCc1ccc(N2CCOCC2)cc1 [Compound 316, 2-Ethyl-6-fluoro-N-(4-morpholinobenzyl)imidazo[1,2-a]pyridine-3-carboxamide] |  | 1 to 20 (≈ 0.382 to 7.65 µg/mL) | 1 to 20 (≈ 0.382 to 7.65 µg/mL)
CCc1nc2cc(Cl)ccn2c1C(=O)NCc1ccc(N2CCC(Oc3ccc(Cl)cc3)CC2)cc1 [Compound 163, 7-Chloro-N-(4-(4-(4-chlorophenoxy)piperidin-1-yl)benzyl)-2-ethylimidazo[1,2-a]pyridine-3-carboxamide] |  | < 1 | < 1
CCc1nc2cc(Cl)ccn2c1C(=O)NCc1ccc(N2CCC(Oc3ccc(C(F)(F)F)cc3)CC2)cc1 [Compound 165, 7-Chloro-2-ethyl-N-(4-(4-(4-(trifluoromethyl)phenoxy)piperidin-1-yl)benzyl) imidazo[1,2-a]pyridine-3-carboxamide] |  | < 1 | < 1
